Measured values as given in ChEMBL document CHEMBL1152737, “Synthesis and biological evaluation of fused thio- and selenopyrans as new indolocarbazole analogues with aryl hydrocarbon receptor affinity” (Bioorg Med Chem, 2009).

Test system: Aryl hydrocarbon receptor (Cavia porcellus)
Assay: Activation of AhR expressed in guinea pig cytosolic fractions over expressed with XRE by ELISA based Ah-immunoassay relative to TCDD

| SMILES | Activity |
| --- | --- |
| c1ccc2c3cc4c([nH]c5ccccc54)sc-3nc2c1 | 0.29 |
| COc1ccc2nc3[se]c4[nH]c5ccc(OC)cc5c4cc-3c2c1 | 0.009 |
| COc1ccc2nc3[se]c4[nH]c5ccc(OC)cc5c4c(C)c-3c2c1 | 0.013 |
| Cc1c2c3ccccc3nc-2sc2[nH]c3ccccc3c12 | 0.36 |
| C1=Cc2sc3ccccc3c2[Se]c2c1sc1ccccc21 | 0.018 |
| Cc1c2c3ccccc3nc-2[se]c2[nH]c3ccccc3c12 | 0.38 |
| c1ccc2c3cc4c([nH]c5ccccc54)[se]c-3nc2c1 | 0.32 |

More lines, now with the values ahead:

| Activity | SMILES |
| --- | --- |
| 0.039 | O=c1c2c([nH]c3ccccc32)sc2[nH]c3ccccc3c12 |
| 0.132 | c1ccc2c3cc4[nH]c5ccccc5c4sc-3nc2c1 |
| 0.0033 | CC1(C)c2c([nH]c3ccccc23)Sc2[nH]c3ccccc3c21 |
| 0.055 | C1=Cc2sc3ccccc3c2Sc2c1sc1ccccc21 |
| 1.48 | c1ccc2c(c1)[nH]c1cc3c(cc12)[nH]c1ccccc13 |
